Among the data in a melting point compilation (Tetko et al.; mined from patent text by program, amines drawn as free bases though some values may be those of a salt) are melting point values, retold here.

Each structure is given as a SMILES string.

One may read the melting point as the temperature, or range, at which the solid turns liquid. On to `CCCCc1noc(-c2ccc(C=CC(=O)NCC3CCCC3(C)C)cc2)n1` (centres undefined), for which the melting point was 144 to 145 °C.

In turn, `O=C1CCC(N2C(=O)c3cccc(CNC(=O)Nc4ccc5c(c4)OCO5)c3C2=O)C(=O)N1` (centres undefined) gave a melting point of 216 to 218 °C.

Take `CC1=C(C(=O)OC(CN2CCCCC2)c2ccccc2)C(c2cccc([N+](=O)[O-])c2)n2nccc2N1` (centres undefined): the melting point was 92 to 93 °C.

`O=C(O)CCC(=O)c1ccc(Br)s1` registered a melting point of 141 to 143 °C.

In turn, `Cc1ccc(C2c3c(C)c(N4C(=O)c5ccccc5C4=O)c(C)c(C)c3OC2(C)C)cc1` (centres undefined) had a melting point of 222 to 224 °C.

For the compound `N#Cc1ccc(-c2nc(-c3ccc(F)cc3)c(-c3ccnc4ccccc34)[nH]2)cc1`, the melting point lay within 294 to 295 °C.

The compound `O=C(NCc1ccc(Cl)c(Cl)c1)c1ccc2n1Cc1ccccc1N(C(=O)CSc1ccc(Br)cc1)C2` gave a melting point of 150 °C.

In turn, `O=C(CN1C(=O)C(c2ccccc2)c2ccccc21)NCc1ccccc1` (centres undefined) had a melting point of 182 to 183 °C.

In turn, `CC(Cc1c[nH]c2ccccc12)(NC(=O)OC1C2CC3CC(C2)CC1C3)C(=O)NCC(CSCC(=O)O)c1ccccc1` (centres undefined) returned a melting point of 78 to 93 °C.

Take `CN1CCC(C(=O)Nc2cccc3nc(NC4CCc5ccccc54)ccc23)CC1` (centres undefined): the melting point is 197 °C.

With `CC(=O)N[C@@H](C)COc1ccc2nc(-c3ccc(OCC4CC4)c(F)c3F)oc2c1F`, the melting point is 168 °C.

Take `COC(=O)C=C(NC1C=CC=CC1(F)NC(=CC(=O)OC)C(=O)OC)C(=O)OC` (centres undefined): the melting point was in the range of 170 to 174 °C.

Compound `N#COc1ccc(OC#N)cc1` registered a melting point of 117 to 119 °C.

With `CCOC(=O)[C@H](Cc1ccc(OC)c(OC)c1)NC(=O)c1ccnc(Br)c1`, the melting point was 108 to 109 °C.

For `C[C@@H](N1CCN(c2ccc(OC(F)(F)C(F)F)cc2)C1=O)[C@@]1(c2ccccc2F)CO1`, the melting point fell in the range of 148 to 149 °C.

Consider `Clc1cccc(N2CCN(CCCCOc3ccc4cn[nH]c4c3)CC2)c1Cl`, for which the melting point lay within 101 to 103 °C.

In turn, `COc1ccc(CNc2nc(-c3ccc(C(=O)O)cc3)nc3scc(C)c23)cc1Cl` displayed a melting point of 245 °C.

Take `COc1cc(/C=C(\C#N)c2c[nH]c3ccc(OC)cc23)cc(OC)c1`: the melting point stood at 141 °C.

`CCCCCS(=O)(=O)NC(=O)/C=C/c1cc(OCCOC)nn1Cc1ccc(Cl)cc1Cl`: the melting point lay in the range of 82 to 85 °C.

`Cc1oc(-c2ccccc2)nc1COc1ccc(COc2ccccc2CC(=O)O)cc1` yielded a melting point of 153 to 154 °C.

The compound `COc1ccc(C(=O)[C@H]2C[C@H]2C(=O)O)cc1` (relative stereo) yielded a melting point of 170 to 172 °C.

In turn, `Nc1cc(Oc2ccc(CCO)cc2)c(N)c2c1C(=O)c1ccccc1C2=O` came in with a melting point of 224 to 227 °C.

Take `CCCCCCC1(Br)CC(=CNc2ccccc2)OC1=O` (centres undefined): the melting point lay within 147 to 148 °C.

As to `CCOCCOc1ccc(CCNC(=O)c2ccccc2CC(=O)OCC)cc1`, the melting point was determined as 108 °C.

Compound `CCCOC(=NC#N)c1ccc(N)nc1` registered a melting point of 150 °C.

Turning to `O=S1(=O)N=CN(C2CC2)c2c1ccc(F)c2Cl`, the melting point was 147 to 148 °C.

For the compound `Cc1cnc(CNC(=O)c2sc(N3CCN(Cc4ccc(C(F)(F)F)cc4)C3=O)nc2C)cn1`, the melting point fell in the range of 172 to 173 °C.

`Nc1c(Cl)cc(C(O)CNCCCCOCCSCCc2ccccc2)cc1Cl` (centres undefined) came in with a melting point of 74 to 77 °C.

With `CC1(NC2=NS(=O)(=O)c3sc(Cl)cc3N2)CCC1`, the melting point was 294 to 296 °C.

In the case of `OC1c2cc(OCc3ccc4ccccc4n3)ccc2OCCC1Oc1cccnc1` (centres undefined), the melting point was in the range of 134 to 136 °C.

Regarding `CC(C)(C)OC(=O)Nc1ccccc1NC(=O)c1ccc(C(=O)Nc2cccc(Nc3nc(-c4cccnc4)cs3)c2)cn1`, the melting point was in the range of 220 to 222 °C.

With `CC(SC(=S)c1cc(C(C)(C)C)c(O)c(C(C)(C)C)c1)c1ccccc1` (centres undefined), the melting point was in the range of 70 to 72 °C.

As for `Cc1ccc(S(=O)(=O)OCC2Cc3cc(Cl)cc(OS(=O)(=O)C(F)(F)F)c3O2)cc1` (centres undefined), the melting point lay within 55 to 57 °C.

On to `COC(=O)C(CNC(C)=O)C1CCC(c2ccccc2)CC1` (centres undefined), for which the melting point was in the range of 75 to 80 °C.

The compound `CC(c1ccc(Cl)cc1)N1Cc2sc3ncn(CCN4CCN(c5cccc6ccccc56)CC4)c(=O)c3c2C1` (centres undefined) returned a melting point of 149 °C.

As for `O=C(O)CCN(C1(C(=O)NO)CCCC1)S(=O)(=O)c1ccc(-c2ccc(F)cc2)cc1`, the melting point fell in the range of 163 to 164 °C.

In turn, `CCOC(=O)C1=C(COCc2cccnc2)NC(COCc2cccnc2)=C(C(=O)OCC)C1c1ccccc1[N+](=O)[O-]` showed a melting point of 142 to 145 °C.

For the compound `O=C(O)c1ccccc1OCCN1CCC(c2cn(CCC3COCCO3)c3ccccc23)CC1` (centres undefined), the melting point fell in the range of 139 to 140 °C.

Compound `COc1ccc(CC2(C)CN(C(c3ccccc3)c3ccccc3)CCN2C)cc1OC` (centres undefined) had a melting point of 102 °C.

The compound `O=C(O)Cc1c(C(=O)O)c2cc(Oc3ccc(C(F)(F)F)cc3)ccc2n1-c1cccc(Cl)c1` yielded a melting point of 236 to 238 °C.

`CCC(=O)N(C(=O)CC)c1cc2c(cc1C)N(C(=O)CC)c1ccc(N(C)C)cc1N2C(=O)CC` registered a melting point of 198 to 199 °C.

`CCOc1cc(OCCCc2cn(-c3ccc(C(F)(F)F)cn3)nc2OCc2ccccc2)ccc1CCC(=O)O` registered a melting point of 106 to 107 °C.

`O=C1c2ccccc2C(=O)c2c(O)c3c(c(O)c21)CCCC3`: the melting point lay in the range of 194 to 196 °C.

For the compound `COC(=O)c1cc(-n2c(OC)nc(C(F)(F)F)cc2=O)c(F)cc1Cl`, the melting point was in the range of 115 to 117 °C.

Compound `O[C@H]1CC[C@H](c2ccc(Br)cc2)CC1` registered a melting point of 110 to 111 °C.

The compound `O=C(O)CCCCCCCCNS(=O)(=O)c1cccc(Cl)c1` displayed a melting point of 112 to 113 °C.

Turning to `COC(=O)c1cc(-c2ccccn2)n(-c2ccc(Cl)nn2)n1`, the melting point was in the range of 164 to 165 °C.

In turn, `COCn1ccnc1C(O)(c1ccc(F)cc1)c1ccc(F)cc1` yielded a melting point of 133 °C.

As for `Cc1ccc2c(c1)CC(=O)N2`, the melting point worked out at 168 °C.

`N#Cc1cc(-c2nc3cncnc3[nH]2)ccc1Oc1ccc(F)cc1` came in with a melting point of over 250 °C.

As to `Cc1c(OCC(F)(F)C(F)(F)F)ccnc1CSc1nc2ccccc2[nH]1`, the melting point lay in the range of 145 to 146 °C.

For `Cc1ccc2c(c1)N(CC(=O)c1ccccc1C)C(=O)C(NC(=O)Nc1cccc(C(=O)O)c1)CN2C(=O)OCc1ccccc1` (centres undefined), the melting point was 144 to 147 °C.

Take `Cc1ccc(F)cc1C(=O)Nc1ccc(C(=O)N2CCCCc3sccc32)cn1`: the melting point lay in the range of 178 to 180 °C.

Take `COc1cc(OC)nc(Sc2cccc(C)c2C(=O)O)n1`: the melting point was 131 to 132 °C.

Consider `COc1cc(OC)c2cc(-c3cc(OC)c(OC)c(OC)c3)oc2c1`, for which the melting point fell in the range of 131 to 132 °C.

Consider `CC1CN(c2c(F)cc3c(=O)c(C(=O)O)cn(C4CC4)c3c2F)CC1CN` (centres undefined), for which the melting point lay in the range of 249 to 252 °C.

Consider `COC(=O)[C@H](CO)NC(=O)c1ncn2c1CN(C)C(=O)c1c(Cl)cccc1-2`, for which the melting point was 178 to 180 °C.

Compound `COc1cccc(OC)c1-c1cc(C(=O)NC2(C(=O)O)C3CC4CC(C3)CC2C4)nn1-c1ccc([N+](=O)[O-])cc1C` (centres undefined) had a melting point of 150 °C.

For the compound `CC(C)(C)c1cc(SC(=S)NN)cc(C(C)(C)C)c1O`, the melting point is 146 °C.
